The subject of experiment [1] is guinea pig cartilage. In words: Degradation of the cartilaginous matrix induced by IL-1β: degradation of proteoglycans (35SO4 glycosaminoglycan release). It counts as cell-based. The settings on record: IL-1β (10 mg/ml), 3 days; for inhibition at 30 µM: Cavia porcellus, 72 h, 3 × 10^-5 M, cartilage labeled with 35SO4, read-out: proteoglycans % protection at 3 × 10^-5M. How it is done: (§1) The compounds of the invention were studied in a model of destruction of the cartilaginous matrix induced by IL-1β. The trials carried out on guinea pig cartilage relate:
on the other hand, to the degradation of proteoglycans: radioisotopic measurement of the glycosaminoglycan fraction released by the tissue during the 3 days of contact with IL-1β (10 mg/mil), the cartilage having been labeled beforehand with ^35 SO4.
(§2) The compounds of the invention were studied by addition to the culture medium for the 3 days of assay. […] By way of example, the activities exerted by some compounds of the invention are the following: […]

The subject of experiment [2] is guinea pig cartilage. In words: Degradation of the cartilaginous matrix induced by IL-1β: degradation of collagen (OH-proline release). To be noted: IL-1β (10 mg/ml) and plasminogen (30 μg/ml), 3 days; for inhibition at 1 µM: Cavia porcellus, 72 h, 10^-6 M, read-out: collagen % protection at 10^-6 M. It counts as cell-based. How it is done:
as §1
on the one hand, to the degradation of collagen: colorimetric assay according to the Grant technique (Grant R. A. Estimation of OH-proline by the autoanalyser, J. Clin. Path. 1964, 17, 685) of the OH-proline fraction released by the tissue brought into contact, for 3 days, with IL-1β ([…]) and of plasminogen (30 μg/ml),
as §2

Experiment [3] has as its system murine Lewis carcinoma cells (LLC). Nature of the experiment: Invasion in vitro, Transwell filter coated with artificial extracellular matrix. It counts as cell-based. To be noted: Mus musculus, 24 h, medium with serum, read-out: inhibition of cellular invasion. Here is the method:
The tests of invasion are carried out according to the following procedure: murine Lewis carcinoma cells (LLC) are deposited on the top face of a Transwell filter coated with an artificial extracellular matrix and are cultured in medium with serum for 24 h. The cells are then exposed to the vital stain 3-[4,5-dimethylthiazol-2-yl]-2,5-diphenyltetrazolium bromide and they are removed from the top face of the filter. The formazan crystals present under the filter are solubilized in a concentrated mixture of sodium dodecyl sulfate and dimethylformamide. The absorption at 540 nm of the corresponding colored mixture is then used to indirectly quantify cellular invasion.

Experiment [4] deals with sections of thoracic aorta from Fischer 344 rats. In words: Angiogenesis in vitro, formation of pseudovessels in collagen gel. It counts as cell-based. To be noted: Rattus norvegicus, 120 h; at 100 nM, five days of culture in serum-free medium; read-out: inhibition of formation of pseudovessels (vascular density). The source says:
Sections of thoracic aorta from 8- to 12-week old male Fischer 344 rats are immersed in a collagen type I gel according to the Nicosia and Ottinetti method (1990). After five days of culture in serum-free medium, the preparations are examined under a microscope and the formation of pseudovessels is quantified in terms of vascular density after digitization and image analysis.

The test system of a further experiment is ovarian cancers. The settings on record: Becket et al., DDT 1996; cited from earlier work.

Where a name gives a salt, the structure may show the parent alone.

Consider six compounds from patent publication US5866587A, “Metalloprotease inhibitors” (Adir Et Compagnie, priority 1996, dated 1999).

Consider `CCCCCCCC1c2[nH]c3ccccc3c2C[C@H](C(=O)NO)N1S(=O)(=O)c1ccc(OC)cc1` (single isomer, unassigned) [Example 7], for which the “proteoglycans % protection at 3 × 10^-5M” value in the experiment with guinea pig cartilage [1] (cartilage labeled with 35SO4, 30 µM) is 100%. Also, the “collagen % protection at 10^-6 M” value in the experiment on guinea pig cartilage [2] (1 µM) is listed as 47%.

Turning to `COc1ccc(S(=O)(=O)N2Cc3sccc3C[C@@H]2C(=O)NO)cc1` [Example 15, (5R)-6-(4-Methoxybenzenesulfonyl)-4,5,6,7-tetrahydro-thieno[2,3-c]pyridine-5-(N-hydroxy)carboxamide], in the experiment on guinea pig cartilage [1], the inhibition at 30 µM stood at 60%. Besides, the inhibition at 1 µM with guinea pig cartilage [2] is 98%.

Take `COc1ccc(S(=O)(=O)N2Cc3occc3C[C@@H]2C(=O)NO)cc1` [Example 28, (5R)-6-(4-Methoxybenzenesulfonyl)-4,5,6,7-tetrahydrofuro[2,3-c]pyridine-5-(N-hydroxy)carboxamide]: the inhibition at 30 µM in the experiment on guinea pig cartilage [1] turned out to be 34%. Moreover, the inhibition at 1 µM with guinea pig cartilage [2] amounted to 79%; in experiment [3] it was 44%. For the same compound, the inhibition at 0.1 µM in experiment [4] is 85%.

Turning to `COc1ccc(S(=O)(=O)N2Cc3ccsc3C[C@@H]2C(=O)NO)cc1` [Example 1, (6R)-5-(4-Methoxybenzenesulfonyl)-4,5,6,7-tetrahydrothieno[3,2-c]pyridine-6-(N-hydroxy)carboxamide], the inhibition at 30 µM in the experiment with guinea pig cartilage [1] was found to be 45%. The inhibition at 1 µM worked out at 98% with guinea pig cartilage [2] and 45% in experiment [3]. Also, the inhibition at 0.1 µM in experiment [4] turned out to be 87%.

Regarding `COc1ccc(S(=O)(=O)N2Cc3nc[nH]c3C[C@@H]2C(=O)NO)cc1` [Example 23, (6R)-5-(4-Methoxybenzenesulfonyl)-4,5,6,7-tetrahydro-imidazo[4,5-c]pyridine-6-(N-hydroxy)carboxamide Hydrochloride], the inhibition at 30 µM in the experiment on guinea pig cartilage [1] amounted to 24%. Further, the inhibition at 1 µM in the experiment with guinea pig cartilage [2] was 88%.

As to `CNC(=O)[C@H](Cc1ccccc1)NC(=O)[C@H](CC(C)C)[C@H](CSc1cccs1)C(=O)NO` [BB94], in the experiment on ovarian cancers, the “antitumor activity in clinical trials” value is “proved active on ovarian cancers”.
